Assays:
[1] = tested on: 3D G-OF organoids; assay: Tissue stiffness of 3D G-OF organoids (microindentation compression test); type: cell-based, human; conditions: for tissue stiffness of 3D G-OF organoids: added day 1, kept to day 6, 10 μM GM6001, 30 nM T3, 5 mIU/ml TSH, 0.5 mM BAPN, 1, 5 or 10 μM HIF2A antagonist
From the text: (§1) Orbital adipose tissues were obtained from surgical waste samples of de-identified euthyroid patients with GO undergoing orbital decompression and from non-GO subjects without inflammatory orbital disease, who underwent cosmetic eyelid surgery. OFs were isolated and grown as previously described (49). Briefly, tissues were minced into small pieces, placed on 150 mm culture dishes, and submerged in growth medium (DMEM supplemented with 10% v/v FBS, 1% v/v L-glutamine, 1% v/v antibiotic-antimycotic) at a sufficient depth to cover the tissue chunks. Explants were cultured in a humidified incubator • (at 37° C. with 5% CO2), with growth medium changes every 2-3 days. OFs from five GO patients five non-GO patients were isolated and expanded for subsequent experiments. All experiments were performed using OFs of 3-6 passages after the initial cell isolation.
(§2) A hanging droplet spheroid culture system was used to generate 3D organoids. To facilitate stable morphology, methylcellulose (Mehocel A4M) was added to the growth medium (52). Prior to seeding the hanging drop culture plate (#HDP1385, Sigma-Aldrich), cells were cultured in 100 mm or 150 mm dishes until reaching approximately 90% confluence. After washing with Hank's Balanced Salt Solution (HBSS), cells were detached using 0.25% Trypsin/EDTA and resuspended in growth medium. After centrifugation for 5 minutes at 300 g, the cell pellet was re-suspended in growth medium containing 0.25% w/v Methocel A4M. Volume was adjusted such that 20,000 cells were contained in 25 μL solution, and 25 μL drops were placed into each well of the drop culture plate (defined as day 0). Organoid medium (growth medium with 0.25% w/v methocel A4M) was used throughout the duration of spheroid culture. Every day, 14 μL culture medium was removed and 14 μL fresh culture medium added to each well.
Adipogenic differentiation was induced with (growth or organoid) medium containing 250 nM dexamethasone, 10 nM T3, 10 μM troglitazone, and 1 μg/ml insulin on days 1-5, followed by medium with 10 μM troglitazone and 1 μg/ml insulin on days 6-11, then with medium alone on day 12. For the analysis of the lipid droplet formation, organoids were transferred to super-low attachment 6 well dishes and incubated in HBSS containing BODIPY (#D3922, Thermo Fisher Scientific) at 1:500 ratio by volume for 1 hour, then fixed in 4% paraformaldehyde (PFA) in PBS for 10 minutes at room temperature. […] Several compounds were added to droplets on day 1 and maintained at the same concentration until collection of organoids on day 6. For individual experiments, these included 10 μM GM6001, (global MMP inhibitor), 30 nM T3, 5 mIU/ml TSH, 30 nM T3+5 mIU/ml TSH, 0.5 mM BAPN (LOX inhibitor), and 1 μM, 5 μM or 10 μM HIF2A antagonist.
The mechanical testing of the organoids was performed using the Microsquisher (CellScale, Waterloo, ON, Canada) as recently reported (53). The device consists of a microscale parallelplate compression system equipped with a 406-μm diameter cantilever. Organoids placed on a 3 mm-square plate for analysis. Immediately following collecting, organoids were placed in a 40 mL HBSS fluid bath at 37° C. and the cantilever was lowered until the upper compression plate was in contact with the top of the organoid. The organoids were compressed to 50% deformation (as determined by microscopic camera) for 20 seconds. The force used to produce 50% stain of displacement was measured by the cantilever and data were reported as force/displacement (μN/μm).

[2] = tested on: 3D N-OF organoids; assay: Immunofluorescent staining of ECM and HIF2A proteins in 3D N-OF organoids; type: cell-based, human; conditions: immunofluorescence; 10 μM GM6001
Experimental: as §2, with “Every day, 14 μL culture medium was removed and 14 μL fresh culture medium added to each well.” left out
(§3) Adipogenic differentiation was induced with (growth or organoid) medium containing 250 nM dexamethasone, 10 nM T3, 10 μM troglitazone, and 1 μg/ml insulin on days 1-5, followed by medium with 10 μM troglitazone and 1 μg/ml insulin on days 6-11, then with medium alone on day 12. […] Fluorescence intensity of BODIPY-stained lipid droplets were measured using Nikon A1 confocal microscope (Tokyo, Japan) and quantified using Image J software version 1.51n (NIH, Bethesda, Md.). […]

[3] = tested on: 3D N-OF organoids; assay: Tissue stiffness of 3D N-OF organoids (microindentation compression test); type: cell-based, human; conditions: added day 1, kept to day 6; 10 μM GM6001, 5 mIU/ml TSH
From the text: as §1
A hanging droplet spheroid culture system was used to generate 3D organoids. […]
(§4) The mechanical testing of the organoids was performed using the Microsquisher (CellScale, Waterloo, ON, Canada) as recently reported (53). […] The organoids were compressed to 50% deformation (as determined by microscopic camera) for 20 seconds. The force used to produce 50% stain of displacement was measured by the cantilever and data were reported as force/displacement (μN/μm).

[4] = tested on: 3D G-OF organoids; assay: Immunofluorescent staining of ECM, LOX and HIF2A proteins in 3D G-OF organoids; type: cell-based, human; conditions: for ECM deposition (collagen types, FN) in G-OF organoids: immunofluorescence, 10 μM GM6001, 30 nM T3, 5 mIU/ml TSH, 0.5 mM BAPN, day 1-6
Experimental: as §2
Adipogenic differentiation was induced with (growth or organoid) medium containing 250 nM dexamethasone, 10 nM T3, 10 μM troglitazone, and 1 μg/ml insulin on days 1-5, followed by medium with 10 μM troglitazone and 1 μg/ml insulin on days 6-11, then with medium alone on day 12. For the analysis of the lipid droplet formation, organoids were transferred to super-low attachment 6 well dishes and incubated in HBSS containing BODIPY (#D3922, Thermo Fisher Scientific) at 1:500 ratio by volume for 1 hour, then fixed in 4% paraformaldehyde (PFA) in PBS for 10 minutes at room temperature. Fluorescence intensity of BODIPY-stained lipid droplets were measured using Nikon A1 confocal microscope (Tokyo, Japan) and quantified using Image J software version 1.51n (NIH, Bethesda, Md.). Several compounds were added to droplets on day 1 and maintained at the same concentration until collection of organoids on day 6. For individual experiments, these included 10 μM GM6001, (global MMP inhibitor), 30 nM T3, 5 mIU/ml TSH, 30 nM T3+5 mIU/ml TSH, 0.5 mM BAPN (LOX inhibitor), and 1 μM, 5 μM or 10 μM HIF2A antagonist.
Organoids were fixed in 4% PFA/PBS overnight with or without permeabilization in 0.5% Triton X-100 in PBS for 1 hour. To stain extracellular collagen and fibronectin, no permeabilization was performed, and all the detergents were excluded from the subsequent procedures. After blocking in 3% BSA/0.1% PBST for 3 hours at room temperature, organoids were washed 3 times for 30 minutes with PBST. Samples were incubated with primary antibody overnight at 4° C. […]

[5] = tested on: 3D G-OF organoids; assay: Organoid size (cross-sectional area) of 3D G-OF organoids; type: cell-based, human; conditions: T3 30 nM, TSH 5 mIU/ml, or combination; 6-day time course
Experimental: (§5) A hanging droplet spheroid culture system was used to generate 3D organoids. To facilitate stable morphology, methylcellulose (Mehocel A4M) was added to the growth medium (52). Prior to seeding the hanging drop culture plate (#HDP1385, Sigma-Aldrich), cells were cultured in 100 mm or 150 mm dishes until reaching approximately 90% confluence. After washing with Hank's Balanced Salt Solution (HBSS), cells were detached using 0.25% Trypsin/EDTA and resuspended in growth medium. After centrifugation for 5 minutes at 300 g, the cell pellet was re-suspended in growth medium containing 0.25% w/v Methocel A4M. […]
as §3
Bright field images of each organoid were captured in 4× or 10× objective lenses using inverted microscope (Olympus IX70). The largest cross-sectional area (CSA) was calculated using Image J software version 1.51n. […] Intensity of immunofluorescent target proteins was quantified using NIH ImageJ software. […]

[6] = tested on: mouse OF organoids; assay: Tissue stiffness of 3D mouse OF organoids expressing mutant HIF2A (HIF2dPA); type: cell-based; conditions: adeno-Cre-induced HIF2dPA
Experimental: ROSA26-STOP-HIF2dPA (flox/flox) mice were provided by Dr. Emestina Schipani (University of Michigan), and used for the isolation of orbital adipose tissue. Cells isolated from this depot were cultivated as previously reported (50) and cultured in a standard growth medium. A degradation-resistant HIF2A mutant was introduced by adenoviral Cre (Vector; Ad5 CMV-Cre)-recombinase by incubation for 16 hours with the virus. Adenoviral GFP (Vector; Ad5 CMV eGFP.dIE3) or Empty (Vector: Ad5 CMV pLpA.dIE3)-recombinase was used as controls.
as §5, with “medium.” for “medium. After centrifugation for 5 minutes at 300 g, the cell pellet was re-suspended in growth medium containing 0.25% w/v Methocel A4M.”
as §4, with “(μN/μm). […]” for “(μN/μm).”

[7] = listed as allosteric HIF2A antagonist

Compound: CNC(=O)[C@H](Cc1c[nH]c2ccccc12)NC(=O)[C@@H](CC(=O)NO)CC(C)C [GM6001]
- tissue stiffness of 3D G-OF organoids [1]: increased tissue stiffness
- ECM deposition (collagen types) in N-OF spheroids [2]: significant accumulation of type I, IV, and VI collagens
- tissue stiffness of 3D N-OF organoids [3]: increased tissue stiffness
- ECM deposition (collagen types, FN) in G-OF organoids [4]: significant accumulation of type I, IV, and VI collagens

Compound: N[C@@H](Cc1cc(I)c(Oc2ccc(O)c(I)c2)c(I)c1)C(=O)O [T3, 3,3′,5-Triiodo-L-thyronine]
- organoid size (CSA) of G-OF organoids [5]: significant reduction in CSA
- ECM deposition (collagen types, FN) in G-OF organoids [4]: no discemable impact

Compound: N#CCCN.O=C(O)/C=C/C(=O)O [BAPN, 3-Aminopropionitrile fumarate salt]
- tissue stiffness of 3D G-OF organoids [1]: reduction of tissue stiffness
- tissue stiffness of mouse OF organoids with mutant HIF2A expression [6]: completely ameliorated the increased tissue stiffness
- ECM deposition (collagen types, FN) in G-OF organoids [4]: effectively suppressed the deposition of collagens type I and IV, FN, but not collagen type III and VI

Compound: O=[N+]([O-])c1c(Nc2cc(F)cc(Cl)c2)ccc2nonc12 [C12H6ClFN4O3]
- tissue stiffness of M22-stimulated G-OF organoids ([1]; listed as C12H6ClFN4O03): reversed the tissue stiffness caused by TSHR activation
- tissue stiffness of M22-stimulated G-OF organoids [1, 7]: reverses
- tissue stiffness of TSH-stimulated G-OF organoids ([1]; listed as C12H6ClFN4O03): reversed the tissue stiffness caused by TSHR activation
- tissue stiffness of TSH-stimulated G-OF organoids [1, 7]: reverses
- tissue stiffness of 3D G-OF organoids [1]: normalized the tissue stiffness
- protein levels of LOX and FN in G-OF organoids ([4]; HIF2A antagonist 1 μM, 5 μM or 10 μM): reducing protein levels of LOX and FN, in a dose-dependent manner
